Source: patent publication US11566007B2, “Ras inhibitors” (Revolution Medicines, Inc., priority 2019, dated 2023)
“And” between values parts separate entries of the source, which are not always exact repeats. Equal values may be shown once. Read-outs that look alike come from different tables or passages of the source.

How the values were obtained:
KRAS Q61H = KRAS Q61H (Homo sapiens (Human), UniProt P01116+P62937, Q61H); assay: Ras-Raf (BRAF RBD) disruption / FRET / MOA assay, KRAS Q61H; assay type: biochemical; settings: Ras-Raf disruption/FRET/MOA assay; class symbols; read-out: KRAS Q61H FRET data IC50
Procedure: (§1) The purpose of this biochemical assay is to measure the ability of test compounds to facilitate ternary complex formation between a nucleotide-loaded Ras isoform and cyclophilin A; the resulting ternary complex disrupts binding to a BRAF^RBD construct, inhibiting Ras signaling through a RAF effector.
(§2) […]. Compound is present in plate wells as a 10-point 3-fold dilution series starting at a final concentration of 30 μM. After incubation at 25° C. for 3 hours, a mixture of Anti-His Eu-W1024 and anti-GST allophycocyanin is then added to assay sample wells at final concentrations of 10 nM and 50 nM, respectively, and the reaction incubated for an additional 1.5 hours. […] Compounds that facilitate disruption of a Ras:RAF complex are identified as those eliciting a decrease in the TR-FRET ratio relative to DMSO control wells.
(§3) Note—The following protocol describes a procedure for monitoring disruption of K-Ras G12C (GMP-PNP) binding to BRAF^RBD by a compound of the invention. This protocol may also be executed substituting other Ras proteins or nucleotides.
(§4) The purpose of this biochemical assay was to measure the ability of test compounds to facilitate ternary complex formation between a nucleotide-loaded K-Ras isoform and Cyclophilin A; the resulting ternary complex disrupts binding to a BRAF^RBD construct, inhibiting K-Ras signaling through a RAF effector. Data is reported as IC50 values.
(§5) […]. Compound was present in plate wells as a 10-point 3-fold dilution series starting at a final concentration of 30 μM. After incubation at 25° C. for 3 hours, a mixture of Anti-His Eu-W1024 and anti-GST allophycocyanin was then added to assay sample wells at final concentrations of 10 nM and 50 nM, respectively, and the reaction incubated for an additional 1.5 hours. […] Compounds that facilitate disruption of a K-Ras:RAF complex were identified as those eliciting a decrease in the TR-FRET ratio relative to DMSO control wells.

K-Ras G12C = K-Ras G12C (Homo sapiens (Human), UniProt P01116+P62937, G12C); assay: Ras-Raf (BRAF RBD) disruption / FRET / MOA assay, KRAS G12C; assay type: biochemical; settings: KRAS G12C; Ras-Raf disruption/FRET/MOA assay; read-out: IC50* KRAS G12C FRET data
Procedure, shortened: (§6)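 A 10-point, 3-fold dilution series topping at 30 μM final was incubated 3 h at 25° C with the Ras/cyclophilin A/BRAF RBD mixture.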

NRAS Q61R = NRAS Q61R (Homo sapiens (Human), UniProt P01111+P62937, Q61R); assay: Ras-Raf (BRAF RBD) disruption / FRET / MOA assay, NRAS Q61R; assay type: biochemical; settings: NRAS Q61R; Ras-Raf disruption/FRET/MOA assay; read-out: IC50* NRAS Q61R FRET data
Procedure: as §1, §2, §3, §4, §5

K-Ras G13C = K-Ras G13C (Homo sapiens (Human), UniProt P01116+P62937, G13C); assay: Ras-Raf (BRAF RBD) disruption / FRET / MOA assay, KRAS G13C; assay type: biochemical; settings: KRAS G13C; Ras-Raf disruption/FRET/MOA assay; read-out: IC50* KRAS G13C FRET data
Procedure, shortened: as §6

KRAS G12V = KRAS G12V (Homo sapiens (Human), UniProt P01116+P62937, G12V); assay: Ras-Raf (BRAF RBD) disruption / FRET / MOA assay, KRAS G12V; assay type: biochemical; settings: read-out: IC50* KRAS G12V FRET data
Procedure, shortened: as §6

NRAS WT = NRAS WT (Homo sapiens (Human), UniProt P01111+P62937); assay: Ras-Raf (BRAF RBD) disruption / FRET / MOA assay, NRAS WT; assay type: biochemical; settings: read-out: IC50* NRAS WT FRET data
Procedure: as §1, §2, §3, §4, §5

KRAS G12S = KRAS G12S (Homo sapiens (Human), UniProt P01116+P62937, G12S); assay: Ras-Raf (BRAF RBD) disruption / FRET / MOA assay, KRAS G12S; assay type: biochemical; settings: Ras-Raf disruption/FRET/MOA assay; class symbols; read-out: KRAS G12S FRET data IC50
Procedure, shortened: as §6

KRAS G13D = KRAS G13D (Homo sapiens (Human), UniProt P01116+P62937, G13D); assay: Ras-Raf (BRAF RBD) disruption / FRET / MOA assay, KRAS G13D; assay type: biochemical; settings: read-out: IC50* KRAS G13D FRET data
Procedure, shortened: as §6

KRAS G12D = KRAS G12D (Homo sapiens (Human), UniProt P01116+P62937, G12D); assay: Ras-Raf (BRAF RBD) disruption / FRET / MOA assay, KRAS G12D; assay type: biochemical; settings: Ras-Raf disruption/FRET/MOA assay; class symbols; read-out: KRAS G12D FRET data IC50
Procedure, shortened: as §6

NRAS Q61K = NRAS Q61K (Homo sapiens (Human), UniProt P01111+P62937, Q61K); assay: Ras-Raf (BRAF RBD) disruption / FRET / MOA assay, NRAS Q61K; assay type: biochemical; settings: NRAS Q61K; Ras-Raf disruption/FRET/MOA assay; read-out: IC50* NRAS Q61K FRET data
Procedure: as §1, §2, §3, §4, §5

KRAS WT = KRAS WT (Homo sapiens (Human), UniProt P01116+P62937); assay: Ras-Raf (BRAF RBD) disruption / FRET / MOA assay, KRAS WT; assay type: biochemical; settings: read-out: IC50* KRAS WT FRET data
Procedure, shortened: as §6

NRAS G12C = NRAS G12C (Homo sapiens (Human), UniProt P01111+P62937, G12C); assay: Ras-Raf (BRAF RBD) disruption / FRET / MOA assay, NRAS G12C; assay type: biochemical; settings: read-out: IC50* NRAS G12C FRET data
Procedure, shortened: as §6

[1] = system: NCI-H358 cells (K-Ras G12C); assay: Potency assay: pERK in NCI-H358 cells; assay type: cell-based, human; settings: H358 KRAS G12C, read-out: pERK EC50
Procedure, shortened: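 pERK decrease read by AlphaLISA SureFire p-ERK1/2 or In-Cell Western after 4 h compound exposure at 37 °C, 5% CO2.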

Chain of NRAS Q61K (P01111 whole entry Q61K): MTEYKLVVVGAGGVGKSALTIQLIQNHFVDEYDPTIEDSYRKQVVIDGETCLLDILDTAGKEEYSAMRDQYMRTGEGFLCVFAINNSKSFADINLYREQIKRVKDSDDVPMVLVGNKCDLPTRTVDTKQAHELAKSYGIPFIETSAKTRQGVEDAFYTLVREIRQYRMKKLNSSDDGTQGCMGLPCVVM
Chain of NRAS Q61K (P62937 whole entry): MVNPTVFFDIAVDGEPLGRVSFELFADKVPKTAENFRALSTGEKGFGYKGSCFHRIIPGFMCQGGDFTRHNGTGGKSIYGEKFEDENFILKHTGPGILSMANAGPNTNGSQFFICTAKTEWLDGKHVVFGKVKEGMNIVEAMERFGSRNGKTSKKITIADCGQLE
Chain of KRAS G12D (P01116-2 other isoform, or with tags, fused parts or gaps G12D): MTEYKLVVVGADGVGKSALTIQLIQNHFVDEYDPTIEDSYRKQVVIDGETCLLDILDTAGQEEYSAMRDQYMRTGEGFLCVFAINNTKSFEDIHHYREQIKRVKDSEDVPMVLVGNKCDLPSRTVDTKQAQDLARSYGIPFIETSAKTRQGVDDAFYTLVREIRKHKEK
Chain of KRAS G12D (P62937 whole entry): as the sequence (P62937 whole entry) above
Chain of NRAS Q61R (P01111 whole entry Q61R): as the sequence (P01111 whole entry Q61K) above, with K61R counted along it
Chain of NRAS Q61R (P62937 whole entry): as the sequence (P62937 whole entry) above
Chain of NRAS WT (P01111 whole entry): as the sequence (P01111 whole entry Q61K) above, with K61Q counted along it
Chain of NRAS WT (P62937 whole entry): as the sequence (P62937 whole entry) above
Chain of NRAS G12C (P01111 whole entry G12C): as the sequence (P01111 whole entry Q61K) above, with G12C, K61Q counted along it
Chain of NRAS G12C (P62937 whole entry): as the sequence (P62937 whole entry) above
Chain of KRAS G13D (P01116-2 other isoform, or with tags, fused parts or gaps G13D): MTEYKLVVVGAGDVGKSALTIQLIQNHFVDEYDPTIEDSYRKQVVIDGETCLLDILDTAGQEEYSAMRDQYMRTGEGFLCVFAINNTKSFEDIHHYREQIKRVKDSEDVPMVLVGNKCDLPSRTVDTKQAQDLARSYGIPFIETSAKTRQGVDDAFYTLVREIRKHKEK
Chain of KRAS G13D (P62937 whole entry): as the sequence (P62937 whole entry) above
Chain of K-Ras G13C (P01116-2 other isoform, or with tags, fused parts or gaps G13C): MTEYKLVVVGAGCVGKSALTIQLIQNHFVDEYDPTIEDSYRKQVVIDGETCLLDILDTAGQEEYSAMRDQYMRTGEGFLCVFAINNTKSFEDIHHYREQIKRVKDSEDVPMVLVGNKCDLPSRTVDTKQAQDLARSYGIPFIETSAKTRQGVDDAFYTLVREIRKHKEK
Chain of K-Ras G13C (P62937 whole entry): as the sequence (P62937 whole entry) above
Chain of KRAS G12V (P01116-2 other isoform, or with tags, fused parts or gaps G12V): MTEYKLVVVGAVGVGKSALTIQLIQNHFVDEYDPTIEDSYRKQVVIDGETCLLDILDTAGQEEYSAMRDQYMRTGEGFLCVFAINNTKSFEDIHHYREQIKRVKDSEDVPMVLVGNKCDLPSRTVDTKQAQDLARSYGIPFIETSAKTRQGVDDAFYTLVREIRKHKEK
Chain of KRAS G12V (P62937 whole entry): as the sequence (P62937 whole entry) above
Chain of KRAS WT (P01116-2 other isoform, or with tags, fused parts or gaps): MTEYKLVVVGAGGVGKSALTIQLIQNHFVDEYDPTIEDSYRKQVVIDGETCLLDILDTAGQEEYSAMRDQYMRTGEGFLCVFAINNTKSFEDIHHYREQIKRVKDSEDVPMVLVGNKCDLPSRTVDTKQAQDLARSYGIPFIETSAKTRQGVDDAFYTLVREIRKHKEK
Chain of KRAS WT (P62937 whole entry): as the sequence (P62937 whole entry) above
Chain of KRAS G12S (P01116-2 other isoform, or with tags, fused parts or gaps G12S): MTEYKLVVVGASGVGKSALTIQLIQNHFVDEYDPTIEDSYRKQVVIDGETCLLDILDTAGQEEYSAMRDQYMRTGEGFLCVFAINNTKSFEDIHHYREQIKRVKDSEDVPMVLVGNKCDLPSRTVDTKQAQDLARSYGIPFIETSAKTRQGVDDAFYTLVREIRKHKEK
Chain of KRAS G12S (P62937 whole entry): as the sequence (P62937 whole entry) above
Chain of K-Ras G12C (P01116-2 other isoform, or with tags, fused parts or gaps G12C): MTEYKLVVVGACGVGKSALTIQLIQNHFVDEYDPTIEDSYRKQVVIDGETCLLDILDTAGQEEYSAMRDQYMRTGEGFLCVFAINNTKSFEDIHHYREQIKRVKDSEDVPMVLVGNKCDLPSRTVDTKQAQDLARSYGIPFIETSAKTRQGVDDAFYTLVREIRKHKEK
Chain of K-Ras G12C (P62937 whole entry): as the sequence (P62937 whole entry) above
Chain of KRAS Q61H (P01116-2 other isoform, or with tags, fused parts or gaps Q61H): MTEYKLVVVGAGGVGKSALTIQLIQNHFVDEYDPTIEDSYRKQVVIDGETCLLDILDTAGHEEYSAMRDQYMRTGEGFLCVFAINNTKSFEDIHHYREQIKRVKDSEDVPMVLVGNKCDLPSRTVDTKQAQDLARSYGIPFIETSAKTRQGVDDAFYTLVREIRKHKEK
Chain of KRAS Q61H (P62937 whole entry, canonical isoform): as the sequence (P62937 whole entry) above

SMILES	IC50 (KRAS Q61H) [nM]	IC50 (K-Ras G12C)	IC50 (NRAS Q61R) [nM]	IC50 (K-Ras G13C)	IC50 (KRAS G12V)	IC50 (NRAS WT) [nM]	IC50 (KRAS G12S)	IC50 (KRAS G13D)	IC50 (KRAS G12D)	IC50 (NRAS Q61K) [nM]	IC50 (KRAS WT)	IC50 (NRAS G12C) [nM]	EC50 ([1]; Homo sapiens, NCI-H358) [nM]	EC50 [1] [nM]
C=CC(=O)N1CC[C@H](C(=O)N(C)[C@H](C(=O)N[C@H]2Cc3cc(sn3)-c3ccc4c(c3)c(c(-c3cccnc3[C@H](C)OC)n4CC)CC(C)(C)COC(=O)[C@@H]3CCCN(N3)C2=O)C(C)C)C1 (atropisomer, axis not shown) [Example A340]	100 to 1000	100 to 1000 nM	1000 to 10000	100 to 1000 nM	1000 to 10000 nM	100 to 1000	1000 to 10000 nM	1000 to 10000 nM	> 10000 nM	100 to 1000	1000 to 10000 nM	100 to 1000		
CO[C@@H](C)c1ncccc1-c1c2c3cc(ccc3n1CC(F)(F)F)-c1cc(cc(C(F)F)c1)C[C@H](NC(=O)[C@H](C(C)C)N(C)C(=O)[C@H]1CCN(C(=O)C#CC(C)(C)N3CCC3)C1)C(=O)N1CCC[C@H](N1)C(=O)OCC(C)(C)C2 (atropisomer, axis not shown) [Example A370]	1000 to 10000	10 to 100 nM	1000 to 10000	100 to 1000 nM	1000 to 10000 nM	1000 to 10000	1000 to 10000 nM	1000 to 10000 nM	1000 to 10000 nM	1000 to 10000	1000 to 10000 nM	10 to 100	< 5000	
C=CC(=O)N1CC[C@H](C(=O)N(C)[C@H](C(=O)N[C@H]2C[C@H]3CN(CCO3)c3ccc4c(c3)c(c(-c3cccnc3[C@H](C)OC)n4CC)CC(C)(C)COC(=O)[C@@H]3CCCN(N3)C2=O)C(C)C)C1 (atropisomer, axis not shown) [Example A378]	> 10000	100 to 1000 nM	> 10000	1000 to 10000 nM	1000 to 10000 nM	1000 to 10000	1000 to 10000 nM	> 10000 nM	> 10000 nM	> 10000	1000 to 10000 nM	100 to 1000	< 5000	
CCn1c(-c2cccnc2[C@H](C)OC)c2c3cc(ccc31)-c1cccc(c1)C[C@H](NC(=O)[C@H](C1CCCC1)N(C)C(=O)[C@@H]1CN(C(=O)C#CC(C)(C)N(C)C)C[C@@H]1C)C(=O)N1CCC[C@H](N1)C(=O)OCC(C)(C)C2 (atropisomer, axis not shown) [Example A391]	1000 to 10000	< 10 nM	1000 to 10000	1000 to 10000 nM	1000 to 10000 nM	1000 to 10000	1000 to 10000 nM	1000 to 10000 nM	> 10000 nM	1000 to 10000	1000 to 10000 nM	< 10	< 5000	
C=CC(=O)N1CC[C@H](C(=O)N(C)[C@H](C(=O)N[C@H]2Cc3cc(O)cc(c3)-c3ccc4c(c3)c(c(-c3cc(CN(C)C)cnc3[C@H](C)OC)n4CC)CC(C)(C)COC(=O)[C@@H]3CCCN(N3)C2=O)C(C)C)C1 (atropisomer, axis not shown) [Example A537]	10 to 100		100 to 1000	10 to 100 nM	10 to 100 nM	10 to 100	10 to 100 nM	10 to 100 nM	100 to 1000 nM	100 to 1000	10 to 100 nM	< 10		< 5000
C=CC(=O)N1CC[C@H](C(=O)N(C)C(C(=O)N[C@H]2C[C@H]3CN(CCO3)c3ccc4c(c3)c(c(-c3cccnc3[C@H](C)OC)n4CC)CC(C)(C)COC(=O)[C@@H]3CCCN(N3)C2=O)C(C)C)C1 (mixture of isomers) [Example A507]	> 10000	100 to 1000 nM	> 10000	1000 to 10000 nM	1000 to 10000 nM	1000 to 10000	1000 to 10000 nM	> 10000 nM	> 10000 nM	> 10000	> 10000 nM	100 to 1000		
C=CC(=O)N1CC[C@H](C(=O)N(C)[C@H](C(=O)N[C@H]2Cc3cc(O)cc(c3)-c3ccc4c(c3)c(c(-c3ccc(N5CCN(C)CC5)nc3)n4CC)CC(C)(C)COC(=O)[C@@H]3CCCN(N3)C2=O)C(C)C)C1 [Example A089]	100 to 1000	100 to 1000 nM	1000 to 10000	1000 to 10000 nM	1000 to 10000 nM	1000 to 10000	1000 to 10000 nM		> 10000 nM	1000 to 10000	1000 to 10000 nM			
C=CC(=O)N1CC[C@H](C(=O)N(C)[C@H](C(=O)N[C@H]2Cc3cc(O)cc(c3)-c3ccc4c(c3)c(c(-c3cccnc3)n4C(C)(C)C#N)CC(C)(C)COC(=O)[C@@H]3CCCN(N3)C2=O)C(C)C)C1 [Example A148]	10 to 100	10 to 100 nM and 1000 to 10000 nM	100 to 1000	> 10000 nM and 1000 to 10000 nM	100 to 1000 nM and > 10000 nM	100 to 1000	100 to 1000 nM and > 10000 nM	1000 to 10000 nM and > 10000 nM	1000 to 10000 nM and > 10000 nM	100 to 1000	100 to 1000 nM and > 10000 nM		< 5000	
